Results from patent US4774248A, “Methods of treating depression and depressive states using 5-phenyl-1,4,5,6-tetrahydropyrimidine derivatives” (priority 1985, dated 1988).
Entries after “also recorded” stand apart in the source; their conditions may differ.

Tests used:
male mice = assay: Acute toxicity, intraperitoneal (LD0, LD30, LD60, LD100); assay type: in vivo
Experimental: (§1) The results of toxicological and neuropsychopharmacological tests which were carried out with the products according to the invention have been summarized below. In these tests, solutions of the said products in distilled water were administered intraperitoneally in a volume of 20 ml/kg to male mice and in a volume of 5 ml/kg to male rats.

mice [1] = assay: Overall behavior and reactivities in mice; assay type: in vivo; details: i.p.
Experimental: as §1
(§2) Groups of 3 animals are observed before and then 0.25 h, 0.50 h, 1 h, 2 h, 3 h and 24 h after the administration of CRL 41 378. The following observations are made:
(§3) Groups of 3 animals are observed before and then 0.25 h, 0.50 h, 1 h, 2 h, 3 h and 24 h after the administration of CRL 41 329.

rats = assay: Overall behavior and reactivities in rats; assay type: in vivo; details: i.p.
Experimental: as §1, §2, §3

[2] = system: hypothermia, righting behavior and stereotypies induced by apomorphine; assay: Interaction with apomorphine in mice; assay type: in vivo; details: i.p.
Experimental: as §1
CRL 41 378 is administered to groups of 6 mice 30 minutes before the subcutaneous injection of 1 or 16 mg/kg of apomorphine.

[3] = system: stereotypies induced by amphetamine; assay: Interaction with amphetamine (rats); assay type: in vivo; details: i.p.; amphetamine 2 mg/kg
Experimental: as §1
Amphetamine (2 mg/kg) is injected intraperitoneally into groups of 6 rats 30 minutes after the administration of CRL 41 378.

[4] = system: hypothermia and ptosis induced by reserpine; assay: Interaction with reserpine; assay type: in vivo; details: mice, i.p.; reserpine 2.5 mg/kg
Experimental: as §1
Four hours after the intraperitoneal injection of 2.5 mg/kg of reserpine, groups of 12 mice receive CRL 41 378.

[5] = system: hypothermia, trembling and peripheral cholinergic symptoms induced by oxotremorine; assay: Interaction with oxotremorine; assay type: in vivo; details: mice, i.p.; oxotremorine 0.5 mg/kg
Experimental: as §1
CRL 41 378 is administered to groups of 6 mice 0.5 h before the intraperitoneal injection of 0.5 mg/kg of oxotremorine.

mice [6] = assay: Electric shock; assay type: in vivo; details: i.p.
Experimental: as §1
The test is performed on groups of 10 mice 30 minutes after the administration of CRL 41 378.

mice [7] = assay: Intergroup aggressiveness; assay type: in vivo; details: mice, i.p.
Experimental: as §1
After they have stayed for 3 weeks in the two halves of a cage divided by an opaque partition, groups of 3 mice receive CRL 41 378. Half an hour later, the two groups from the same cage are brought together by removal of the partition and the number of fights which occur in 10 minutes is noted.

mice [8] = assay: Motility reduced by hypoxic aggression (acute hypobaric anoxia); assay type: in vivo; details: i.p.
Experimental: In these tests, solutions of the said products in distilled water were administered intraperitoneally in a volume of 20 ml/kg to male mice and in a volume of 5 ml/kg to male rats.

mice [9] = assay: Asphyxiant anoxia caused by gallamine triiodoethylate; assay type: in vivo; details: i.p., gallamine triiodoethylate 32 mg/kg
Experimental: as §1
Groups of 10 mice receive CRL 41 378 30 minutes before the intraperitoneal administration of 32 mg/kg of gallamine triiodoethylate (reference curarizing agent).

mice [10] = assay: Behavioral despair (forced immersion); assay type: in vivo; details: mice which have been forcibly immersed, i.p.
Experimental: as §1
Half an hour after they have received CRL 41 378, groups of 6 mice are placed in a beaker filled with water to a height of 6 cm. The total period of immobility between the 2nd and 6th minutes following immersion is noted.

[11] = system: central nervous system (CNS); assay: Neuropsychopharmacological profile (conclusions of the tests); assay type: in vivo, mice and rats; details: i.p.
Experimental: as §1

[12] = system: hypothermia induced by apomorphine; assay: Interaction with apomorphine by gastric administration; assay type: in vivo; details: Mus musculus, male mice, apomorphine 16 mg/kg s.c., read-out: dose as from which the hypothermia induced by apomorphine is opposed
Experimental: Each test product is administered gastrically to male mice, in a volume of 20 ml/kg, 0.50 h before the subcutaneous injection of 16 mg/kg of apomorphine.

anesthetized dogs [13] = assay: Cardiovascular study in anesthetized dogs; assay type: in vivo
Experimental: Groups of 2 adult dogs (each weighing 10 to 18 kg), anesthetized with nembutal, receive each test product (i) by intraduodenal administration at successive doses of 0.1 mg/kg, 0.5 mg/kg, 1 mg/kg, 2.5 mg/kg, 5 mg/kb, 10 mg/kg and 20 mg/kg, and then (ii) if appropriate, by intravenous administration at a dose of 10 mg/kg. The effects of 10 μg/kg of isoprenaline and/or 2 μg/kg of norepinephrine after the intraduodenal administration of a cumulative dose of 39.1 mg/kg are also assessed.
The following are measured: the total arterial blood pressure, the diastolic arterial blood pressure, the heart rate, the blood flows through the femoral and cerebral arteries and saphenous veins, the rectal temperature, the skin temperature and the pressure of the gases (essentially O2) dissolved in the arterial blood.

[14] = system: trembling and head twitches induced by 5-hydroxytryptophan (5-HTP); assay: Interaction with 5-hydroxytryptophan in association with an MAOI (nialamide); assay type: in vivo, male mice
Experimental: The purpose of the procedure used is to investigate the activity of each product according to the invention as regards the trembling induced by 5-hydroxytryptophan (5-HTP) in association with an MAOI (in this case nialamide).
Each test product, in solution in distilled water, is administered intraperitoneally in a volume of 20 ml/kg to male mice.
Groups of 10 mice receive nialamide (20 mg/kg, administered gastrically) at time T-18 h, each test product at time T-0.5 h and then (±)-5-HTP (20 mg/kg, administered intraperitoneally) at time T. Immediately after the injection of the (±)-5-HTP, the mice are individually placed in transparent plastic boxes. The generalized trembling, the partial trembling and the head twitches are noted on a yes/no basis for 2 h.

pregnant rabbits = assay: Teratogenic effects on pregnant rabbits; assay type: in vivo
[15] = system: depressions and depressive states; assay: Clinical trials in depression and depressive states; assay type: in vivo, human; details: daily oral administration to adults
Experimental: The clinical trials which have been undertaken have made it possible to determine that the daily dose to be administered orally to adults, in the treatment of depressions and depressive states, is generally between 3 and 120 mg for the products of the formulae Ia and Ib according to the invention.

anesthetized dogs [16] = assay: Cardiovascular study in anesthetized dogs; assay type: in vivo; details: intraduodenal
[17] = i.p., nialamide + (±)-5-HTP, male mice

Cl.Fc1ccccc1C1CN=CNC1 (stereo not shown) [CRL 41 329, 5-(2-fluorophenyl)-1,4,5,6-tetrahydropyrimidine hydrochloride]
toxic signs in the animals treated (male mice; 64 mg/kg i.p.): all the animals treated exhibit salivation, sedation and vasodilation of the tail
toxic signs in the animals treated (male mice; 128 mg/kg i.p.): all the animals have asphyxiant convulsions
LD0 (maximum non-lethal dose) (male mice; intraperitoneal): greater than 64 mg/kg
LD100 (minimum dose lethal to all the animals) (male mice; intraperitoneal): ~128 mg/kg
overall behavior and reactivities (mice [1]; 0.5 mg/kg): moderate mydriasis for 2 h
overall behavior and reactivities (mice [1]; 2 mg/kg, hydrochloride): sedation (2 out of 3 animals) for 0.5 h; also recorded: moderate and brief mydriasis for 0.5 h
overall behavior and reactivities (mice [1]; 8 mg/kg, hydrochloride): sedation (2 out of 3 animals) for 0.5 h; also recorded: weak and brief mydriasis for 0.5 h
overall behavior and reactivities (mice [1]; 32 mg/kg): sedation (3/3) 0.25 h after administration, then (2/3) 0.5 h after administration
overall behavior and reactivities (rats; 0.25 mg/kg): moderate mydriasis for 3 h
overall behavior and reactivities (rats; 1 mg/kg): significant mydriasis for 3 h
overall behavior and reactivities (rats; 4 mg/kg, hydrochloride): sedation (3/3) for 2 h; also recorded: a decrease in the reactivity to touch and the muscle tone; also recorded: piloerection (1/3) for 1 h; also recorded: significant mydriasis for at least 3 h (mydriasis still being apparent 24 h after administration)
overall behavior and reactivities (rats; 16 mg/kg, hydrochloride): sedation (3/3) for 3 h; also recorded: a decrease in the reactivity to touch and the muscle tone; also recorded: significant mydriasis for 3 h (the mydriasis still being apparent 24 h after administration)
action on hypothermia induced by apomorphine [2]: significant antagonism of the hypothermia induced by apomorphine, oxotremorine and reserpine
action on stereotypies induced by amphetamine [3]: potentiates the stereotypies induced by amphetamine
action on hypothermia induced by reserpine [4]: significant antagonism of the hypothermia induced by apomorphine, oxotremorine and reserpine
action on hypothermia induced by oxotremorine [5]: significant antagonism of the hypothermia induced by apomorphine, oxotremorine and reserpine
lethal effects of electric shock (mice [6]): aggravation of the lethal effects of electric shock and gallamine triiodoethylate in mice
intergroup aggressiveness (number of fights) (mice [7]): a decrease in the intergroup aggressiveness in mice
motor recovery after acute hypobaric hypoxia (mice [8]): a decrease in the motor recovery after hypoxic aggression
time taken for convulsions and death / lethal effects of gallamine triiodoethylate (mice [9]): aggravation of the lethal effects of electric shock and gallamine triiodoethylate in mice
period of immobility (mice [10]): no decrease in the period of immobility due to "despair"
antidepressant effects [11]: antidepressant effects appearing at all the doses used
peripheral α-adrenergic stimulant effects [11]: modest effects capable of reflecting peripheral α-adrenergic stimulation
sedative effects ([11]; hydrochloride): sedative effects appearing at high doses; also recorded: sedation with hypomotility; also recorded: low-intensity transient hypothermia
minimal effective dose [12]: ≥ 0.25 mg/kg
rectal temperature (anesthetized dogs [13]): increases the rectal temperature
skin temperature (anesthetized dogs [13]): increases the rectal temperature and skin temperature
arterial blood pressure (anesthetized dogs [13]; intraduodenal): tends to increase the arterial blood pressure
heart rate (anesthetized dogs [13]; intraduodenal): decrease the heart rate
mydriasis and salivation (anesthetized dogs [13]; intraduodenal): causes mydriasis and substantial salivation
respiratory arrhythmia (anesthetized dogs [13]; intraduodenal): causing respiratory arrhythmia
effects of isoprenaline (anesthetized dogs [13]; isoprenaline 10 μg/kg): does not cause a distinct modification of the effects of isoprenaline on the diastolic arterial blood pressure and the heart rate
hypertension induced by norepinephrine (anesthetized dogs [13]; norepinephrine 2 μg/kg): decreases the hypertension induced by norepinephrine
analogy with β-adrenergic stimulants in the 5-HTP procedure ([14]; 5-HTP + MAOI): effects analogous to those of isoprenaline
intensity of potentiation of 5-HTP effects ([14]; higher doses, 5-HTP + MAOI, male mice): the potentiation being very intense at the doses of 8 to 32 mg/kg
head twitches [14, 17]: distinctly potentiate the partial trembling and the head twitches
partial trembling [14, 17]: distinctly potentiate the partial trembling and the head twitches
teratogenic effects (pregnant rabbits): devoid of harmful teratogenic effects on pregnant rabbits
results in human therapy (depression) [15]: excellent results
blood flows through the femoral and vertebral arteries (anesthetized dogs [16]): decreases the blood flows in the femoral and vertebral arteries
